Assay results: US8158621B2, “Methods of treating or preventing autoimmune diseases with 2,4-pyrimidinediamine compounds” (Rigel Pharmaceuticals, Inc., priority 2002, dated 2012)

System: Human Jurkat T-cells (clone N)
Assay: Jurkat T-cell activation (anti-TCR, CD69 upregulation)
Type: cell-based
Details: Homo sapiens, Jurkat
Summary of the method: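 Jurkat cells in RPMI + 5% FBS preincubated with compound 1 h at 37 °C, then stimulated with anti-TCR C305 at 500 ng/ml for 20 h. CD69 surface expression stained with anti-CD69-APC and read by flow cytometry; IC50 versus solvent-only control.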

| IC50 | SMILES |
| --- | --- |
| > 10000 nM | CCOC(=O)C=C1NN=C(c2cccc(Nc3nc(Cl)ncc3F)c2)O1 [Compound R926873] |
| 9050 nM | Fc1ccc(Nc2nc(Cl)ncc2F)cc1F [Compound R926882] |
| > 10000 nM | Fc1cnc(Cl)nc1Nc1ccc(OC(F)(F)F)cc1 [Compound R926875] |

System: cultured human mast cells (CHMC)
Assay: CHMC low cell density IgE activation: tryptase assay
Type: cell-based
Details: Homo sapiens, Mast cell, Low Density; read-out: CHMC anti-IgE Tryptase
Experimental: Pellet CHMC cells (980 rpm, 10 min) and resuspend in pre-warmed MT. Add 65 ul of cells to each 96-well plate. Depending on the degranulation activity for each particular CHMC donor, load 1000-1500 cells/well. Mix four times followed by a 1 hr incubation at 37° C. […] Stimulate cells by adding 25 ul of 6× anti-IgE solution to the appropriate plates. Add 25 ul MT to un-stimulated control wells. Mix twice following addition of the anti-IgE. Incubate at 37° C. for 30 minutes. […] Spin plates at 1000 rpm for 10 min to pellet cells. Transfer 25 ul of supernatant to a 96-well black bottom plate and add 100 ul of freshly diluted tryptase substrate solution to each well. Incubate plates at room temperature for 30 min.

| IC50 | SMILES |
| --- | --- |
| > 10000 nM | CCOC(=O)C=C1NN=C(c2cccc(Nc3nc(Cl)ncc3F)c2)O1 [Compound R926873] |
| > 10000 nM | Fc1ccc(Nc2nc(Cl)ncc2F)cc1F [Compound R926882] |
| > 10000 nM | Fc1cnc(Cl)nc1Nc1ccc(OC(F)(F)F)cc1 [Compound R926875] |
| 401 nM | OCCOc1ccc(Nc2ncc(F)c(Nc3cccc(O)c3)n2)cc1 [Compound R935155] |
| > 10000 nM | CN(C=C1C=CC=C(Nc2nc(Cl)ncc2F)C1)C(=O)OC(C)(C)C [Compound R940315] |
| > 10000 nM | Fc1cnc(Cl)nc1Nc1ccc(Cl)nc1 [Compound R920400] |
| > 10000 nM | Cc1ccnc(Nc2nc(Cl)ncc2F)c1 [Compound R920401] |
| > 10000 nM | Fc1cnc(Cl)nc1Nc1cccc(OC(F)(F)F)c1 [Compound R920402] |

Same assay, conditions: low cell density; read-out: CHMC anti-IgE Tryptase

| IC50 | SMILES |
| --- | --- |
| 177 nM | C[C@@H]1Oc2ccc(Nc3nc(Nc4ccc(CNC(=O)OC(C)(C)C)cc4)ncc3F)cc2NC1=O [Compound R950460] |
| > 10000 nM | CC(C)(C)OC(=O)NC1CCOc2ccc(Nc3ncc(F)c(Nc4ccc(Cl)c(Cl)c4)n3)cc21 (racemic) [Compound R950433] |
| > 10000 nM | Fc1cnc(NC2CC2)nc1NC1CC1 [Compound R945376] |
| 1170 nM | CNC(=O)CCn1ncc2ccc(Nc3ncc(F)c(Nc4ccc(OC)c(Cl)c4)n3)cc21 [Compound R935409] |
| > 10000 nM | O=C1COc2ccc(Nc3nc(Nc4ccc(Oc5ccccc5)cc4)ncc3F)nc2N1 [Compound R945409] |
| 1890 nM | CNC(=O)COc1cccc(Nc2ncc(F)c(Nc3ccc4c(c3)C(NS(=O)(=O)c3ccc(C)cc3)CCO4)n2)c1 (racemic) [Compound R950493] |
| 101 nM | C[C@@H]1Oc2ccc(Nc3nc(Nc4ccc(C(N)=O)cc4)ncc3F)cc2NC1=O [Compound R950452] |
| 379 nM | CCN(CC)CCNC(=O)c1ccc(Nc2ncc(F)c(Nc3ccc(Cl)c(Cl)c3)n2)cc1 [Compound R950445] |
| > 10000 nM | CC(C)(C)OC(=O)NCc1ccc(Nc2ncc(F)c(Nc3ccc4c(c3)C(=O)NC(=O)C4(C)C)n2)cc1 [Compound R950462] |
| 50 nM | Cn1ncc2ccc(Nc3ncc(F)c(Nc4ccc5c(c4)NC(C)(C)CO5)n3)cc21 [Compound R908592] |
| 2890 nM | COc1cc(Nc2ncc(F)c(Nc3ccc4cnn(C)c4c3)n2)c(OC)cc1Cl [Compound R935421] |
| 12200 nM | COc1c(Cl)cc(Nc2ncc(F)c(Nc3ccc(Cl)c(Cl)c3)n2)cc1Cl [Compound R927058] |
| 216 nM | COc1ccc(Nc2nc(Nc3ccc4cnn(C)c4c3)ncc2F)cc1Cl [Compound R935402] |
| 10000 nM | COc1cc(Nc2ncc(F)c(Nc3ccc(N4CCOCC4)c(Cl)c3)n2)cc(C(F)(F)F)c1 [Compound R926987] |
| 389 nM | OCCCn1ncc2ccc(Nc3ncc(F)c(Nc4ccc(Cl)c(Cl)c4)n3)cc21 [Compound R935405] |
| 888 nM | CC1Oc2ccc(Nc3nc(Nc4ccc5c(c4)C(N)CCO5)ncc3F)cc2NC1=O (mixture of isomers) [Compound R950438] |
| > 10000 nM | CNC(=O)COc1cccc(Nc2ncc(F)c(Nc3ccc4c(c3)C(NS(C)(=O)=O)CCO4)n2)c1 (racemic) [Compound R950494] |
| 701 nM | COC(=O)c1ccc(Cn2ncc3ccc(Nc4ncc(F)c(Nc5ccc6c(c5)NC(=O)C(C)(C)O6)n4)cc32)c(OC)c1 [Compound R935442] |
| 811 nM | NC1CCOc2ccc(Nc3ncc(F)c(Nc4ccc(Cl)c(Cl)c4)n3)cc21 (racemic) [Compound R950437] |
| 890 nM | COc1ccc(Nc2ncc(F)c(Nc3ccc4c(c3)NC(=O)C(C)(C)O4)n2)c(OC)n1 [Compound R927068] |
| 3970 nM | CC(C)(C)OC(=O)NC1CCOc2ccc(Nc3nc(Nc4ccc(Cl)c(Cl)c4)ncc3F)cc21 (racemic) [Compound R950429] |

| IC50 | SMILES |
| --- | --- |
| 293 nM | COc1c(Cl)cc(Nc2ncc(F)c(Nc3ccc4c(c3)C(=O)NC(=O)C4(C)C)n2)cc1Cl [Compound R908955] |
| 586 nM | COc1ccc(Nc2nc(Nc3ccc4[nH]ncc4c3)ncc2F)cc1OC [Compound R935441] |
| 261 nM | COc1c(C)cc(Nc2ncc(F)c(Nc3ccc4c(n3)NC(=O)C(C)(C)O4)n2)cc1Cl [Compound R940391] |
| 5260 nM | Cc1cc(Nc2ncc(F)c(Nc3ccc4c(c3)OCCO4)n2)cc(Cl)c1O [Compound R940393] |
| 3700 nM | COc1c(C)cc(Nc2ncc(F)c(Nc3ccc4c(c3)OCCO4)n2)cc1Cl [Compound R940397] |
| 393 nM | COc1ccc(Nc2nc(Nc3ccc4cnn(CCCO)c4c3)ncc2F)cc1Cl [Compound R935407] |
| 167 nM | COc1cc(Nc2ncc(F)c(Nc3ccc4cn[nH]c4c3)n2)cc(OC)c1 [Compound R935423] |
| 145 nM | COC(=O)COc1cccc(Nc2ncc(F)c(Nc3ccc4c(n3)NC(=O)C(C)(C)O4)n2)c1 [Compound R940392] |
| 689 nM | COc1ccc(Nc2nc(Nc3cc(C)c(C)c(C)c3)ncc2F)cc1Cl [Compound R926993] |
| 628 nM | Cn1ncc2ccc(Nc3nc(Nc4ccc5c(c4)NC(=O)C(C)(C)O5)ncc3F)cc21 [Compound R935424] |
| 877 nM | CCOC(=O)CCn1ncc2cc(Nc3ncc(F)c(Nc4ccc(Cl)c(Cl)c4)n3)ccc21 [Compound R935389] |
| > 10000 nM | Cn1ncc2ccc(Nc3nc(Cl)ncc3F)cc21 [Compound R935394] |
| 909 nM | CNC(=O)c1ccc(Cn2ncc3ccc(Nc4ncc(F)c(Nc5ccc6c(c5)OCCO6)n4)cc32)c(OC)c1 [Compound R935399] |
| 66.8 nM | COc1cc(Nc2ncc(F)c(Nc3ccc4c(c3)NC(=O)C(C)(C)O4)n2)cc(OC)c1 [Compound R927073] |
| 1120 nM | CNC(=O)COc1cccc(Nc2ncc(F)c(NC3CCC3)n2)c1 [Compound R945387] |
| 2860 nM | CCNC1CCC(Oc2ccc(Nc3nc(Nc4cccc(OCC(=O)NC)c4)ncc3F)cc2Cl)CC1 (mixture of isomers) [Compound R945411] |
| 2240 nM | O=C(COc1cccc(Nc2ncc(F)c(NC3CCC3)n2)c1)NC1CCC1 [Compound R945396] |
| 351 nM | NCc1ccc(Nc2ncc(F)c(Nc3ccc4c(c3)NC(=O)C(F)(F)O4)n2)cc1 [Compound R950465] |
| 11300 nM | COc1ccc(Nc2nc(Nc3cc(Cl)cc(Cl)c3)ncc2F)cc1Cl [Compound R926990] |
| 244 nM | CC(C)(C)OC(=O)NCc1ccc(Nc2ncc(F)c(Nc3ccc4c(c3)NC(=O)C(F)(F)O4)n2)cc1 [Compound R950464] |
| 293 nM | CNC(=O)COc1cccc(Nc2ncc(F)c(Nc3cc(C)c(OC)c(Cl)c3)n2)c1 [Compound R926974] |

| IC50 | SMILES |
| --- | --- |
| 2420 nM | COc1cc(Nc2nc(Nc3ccc4c(c3)C(NC(=O)OC(C)(C)C)CCO4)ncc2F)cc(OC)c1 (racemic) [Compound R950432] |
| 1900 nM | COc1ccc(Nc2ncc(F)c(Nc3ccc4c(c3)C(NC(=O)OC(C)(C)C)CCO4)n2)cc1Cl (racemic) [Compound R950427] |
| > 10000 nM | O=C1COc2ccc(Nc3nc(Nc4ccc(OCc5ccccc5)cc4)ncc3F)nc2N1 [Compound R945410] |
| 581 nM | CNC(=O)CCn1ncc2ccc(Nc3ncc(F)c(Nc4ccc(Cl)c(Cl)c4)n3)cc21 [Compound R935404] |
| > 10000 nM | CC(=O)N1CCN(c2ccc(Nc3nc(NC4CCC4)ncc3F)cc2)CC1 [Compound R945382] |
| > 10000 nM | CC(=O)N(C)c1ccc(Nc2nc(NC3CCC3)ncc2F)cc1 [Compound R945379] |
| 671 nM | CN(C)C(=O)C1Cc2cc(Nc3ncc(F)c(Nc4ccc(OC(F)(F)F)c(Cl)c4)n3)ccc2O1 (stereo not shown) [Compound R927053] |
| 276 nM | Cc1cc(Nc2ncc(F)c(Nc3ccc4cnn(C)c4c3)n2)cc(Cl)c1O [Compound R935395] |
| 436 nM | COc1ccc(Nc2nc(Nc3cc(C)cc(C)c3)ncc2F)cc1Cl [Compound R926991] |
| > 10000 nM | Fc1cnc(NC2CCC2)nc1NC1CCC1 [Compound R945380] |
| 1390 nM | COC(=O)N1CCN(c2ccc(Nc3ncc(F)c(NC4CCC4)n3)cc2)CC1 [Compound R945386] |
| 417 nM | COc1cc(Nc2nc(Nc3ccc4[nH]ncc4c3)ncc2F)ccc1F [Compound R935417] |
| 561 nM | COc1cc(Nc2ncc(F)c(Nc3ccc4cnn(C)c4c3)n2)cc(OC)c1 [Compound R935420] |
| 928 nM | COc1c(Cl)cc(Nc2ncc(F)c(NC3CCC3)n2)cc1Cl [Compound R945397] |
| 1170 nM | CCOC(=O)CCn1ncc2ccc(Nc3ncc(F)c(Nc4ccc(OC)c(Cl)c4)n3)cc21 [Compound R935406] |
| 308 nM | CCOC(=O)CCn1ncc2ccc(Nc3ncc(F)c(Nc4ccc5c(c4)NC(=O)C(C)(C)O5)n3)cc21 [Compound R935434] |
| > 10000 nM | CCCCOc1ccc(Nc2ncc(F)c(Nc3ccc4c(n3)NC(=O)CO4)n2)cc1 [Compound R945408] |
| 1700 nM | CNC(=O)COc1cccc(Nc2ncc(F)c(Nc3ccc(OC4CCC(N)CC4)c(Cl)c3)n2)c1 (mixture of isomers) [Compound R945403] |
| > 10000 nM | COc1c(Cl)cc(Nc2ncc(F)c(Nc3ccc(OC(F)(F)F)c(Cl)c3)n2)cc1Cl [Compound R927055] |
| > 10000 nM | CC(=O)N(C)c1ccc(Nc2nc(NC3CC3)ncc2F)cc1 [Compound R945375] |
